According to patent US11977071B2, “Method for screening for platelet production promoters” (Kyoto University, priority 2016, dated 2024):

Legend:
[1] = tested on: TUBB1 expression (VENUS reporter) in immortalized megakaryocyte cell line MKCL #12-23 cre2; experiment: Secondary screening: VENUS fluorescence intensity in reporter immortalized megakaryocyte cell line at four concentrations; type: cell-based, human; conditions: 10 μM, 3.3 μM, 1.1 μM and 0.4 μM compound, day 7
Method: Secondary screening consisted of seeding the immortalized megakaryocyte cell line obtained according to the method described above into a 96-well dish and culturing after adding 10 μM Y-27632, 50 ng/ml of TPO, 50 ng/ml of SCF and the primary candidate compounds at concentrations of 10 μM, 3.3 μM, 1.1 μM and 0.4 μM each. The cells were also cultured in differentiation medium containing 0.75 μM SR1, 10 μM Y-27632, 50 ng/ml of TPO and 50 ng/ml of SCF (positive control) or differentiation medium containing 0.1% DMSO, 10 μM Y-27632, 50 ng/ml of TPO and 50 ng/ml of SCF (negative control). On day 7 of culturing, the fluorescence intensity of VENUS in each compound group was measured with Array Scan VTI (Thermo Scientific), and the value of fluorescence intensity of each compound was corrected according to the fluorescence intensity of the positive control (assigned a value of 100%) and the fluorescence intensity of the negative control (assigned a value of 0%). […] The secondary candidate compounds consisted of 35 types of compounds, and included, for example, TCS-359 (CAS NO. 301305-73-7, Santa Cruz Biotechnology, Inc.) and C59 (CAS NO. 1243243-89-1).

[2] = tested on: immortalized megakaryocyte cell line MKCL #12-23 cre2; experiment: Platelet production by immortalized megakaryocyte cell line, FACS of supernatant (anti-CD41a, anti-CD42b); type: cell-based, human; conditions: 10 μM, 3.3 μM, 1.1 μM and 0.4 μM compound, day 7, 6-well dish
Method: Continuing, the effect of promoting platelet production was confirmed for 28 compounds from among the secondary candidate compounds excluding duplicate compounds and compounds that were unable to be used commercially. The above-mentioned immortalized megakaryocyte cell line was cultured in a 6-well dish in differentiation medium containing each of the compounds at concentrations of 10 μM, 3.3 μM, 1.1 μM and 0.4 μM, 10 μM Y-27632, 50 ng/ml of TPO and 50 ng/ml of SCF, differentiation medium containing 0.75 μM SR1, 10 μM Y-27632, 50 ng/ml of TPO and 50 ng/ml of SCF (positive control), or differentiation medium containing 0.1% DMSO, 10 μM Y-27632, 50 ng/ml of TPO and 50 ng/ml of SCF (negative control), followed by suspending the cells and harvesting the supernatant on day 7 of culturing and analyzing by FACS after staining with anti-CD41a antibody and anti-CD42b antibody. The relative number of platelets was calculated by correcting the number of platelets in the case of using each candidate compound with the number of platelets of the positive control (assigned a value of 100%) and the number of platelets of the negative control (assigned a value of 0%) (FIG. 9).

[3] = tested on: megakaryocyte cells (non-immortalized) derived from iPS cells (TkDA3-4); experiment: Platelet production of iPS cell (TkDA3-4)-derived megakaryocyte cells in absence of feeder cells, FACS; type: cell-based; conditions: 10 days, 1 μM C59, 3.3 μM TCS-359, 0.75 μM SR1
Method: After culturing iPS cells (TkDA3-4), the colonies were detached with a cell scraper and cultured in differentiation medium on 10T1/2 feeder cells following the addition of […] of VEGF in accordance with Takayama, N., et al., Blood, 111, pp. 5298-5306, 2008. Fourteen days later, the cells were recovered using a cell scraper and cultured for 10 days in the absence of feeder cells following the addition of 25 U/mL of heparin, 10 μM Y-27632, 100 ng/ml of TPO and 50 ng/ml of SCF, and further adding 0.1% DMSO, 0.75 μM SR1, 1 μM C59 (Albiochem) or 3.3 μM TCS-359 (Santa Cruz Biotechnology, Inc.). Culturing was also carried out in the same manner using feeder cells. The resulting cells were suspended and the supernatant was harvested followed by analyzing by FACS after staining with anti-CD41a antibody and anti-CD42b antibody (FIG. 10).

[4] = tested on: immortalized megakaryocyte cell line MKCL #12-23 cre2; experiment: Time course of VENUS expression and platelet number with or without SR1 on 10T1/2R feeder cells, FACS; type: cell-based, human; conditions: 0.75 μM SR1 with 10 μM Y-27632, TPO, SCF; day 0 to day 7
Method: Continuing, the immortalized megakaryocyte cell line was cultured on 10T1/2R feeder cells in differentiation medium containing 50 ng/ml of TPO and 50 ng/ml of SCF or differentiation medium containing 0.75 μM SR1, 10 μM Y-27632, 50 ng/ml of TPO and 50 ng/ml of SCF, followed by suspending the cells and harvesting the supernatant on day 0, day 1, day 3, day 4, day 6 and day 7 of culturing and analyzing the cells by FACS after staining with anti-CD41a antibody and anti-CD42b antibody.

| SMILES | concentration dependency of VENUS fluorescence intensity [1] | relative number of platelets (positive control 0.75 μM SR1 = 100%, negative control 0.1% DMSO = 0%) [2] | ability to produce platelets compared with SR1 [3] | expression level of VENUS [4] | number of platelets produced [4] |
| --- | --- | --- | --- | --- | --- |
| Cc1cc(-c2ccc(CC(=O)Nc3ccc(-c4cccnc4)cc3)cc2)ccn1 [C59] | concentration dependency was observed | potent platelet inducer | equal to or greater than that of SR1 | – | – |
| CC(C)n1cnc2c(NCCc3ccc(O)cc3)nc(-c3csc4ccccc34)nc21 [SR1, StemRegenin 1] | – | – | – | confirmed to rise | confirmed to increase |
| COc1ccc(C(=O)Nc2sc3c(c2C(N)=O)CCCC3)cc1OC [TCS-359] | concentration dependency was observed | – | equal to or greater than that of SR1 | – | – |
